ChEMBL document CHEMBL4828726, “Modification of 5-methylphenanthridium from benzothiazoles to indoles as potent FtsZ inhibitors: Broadening the antibacterial spectrum toward vancomycin-resistant enterococci” (Eur J Med Chem, 2021)
In brackets after ≈: the same amount, converted by molar mass. Activity calls are given as the source filed them. The calls are words filed in the database; no cut-off is given here.

Assays:
Staphylococcus aureus [1] = assay: Antibacterial activity against Staphylococcus aureus ATCC 25923 assessed as decrease of bacterial growth at 32 ug/ml measured up to 24 hrs by Time kill assay; type: functional, organism-based; conditions: dose 32.0 µg/ml, time hrs <=24
[2] = target: T1, Cell division protein FtsZ (Bacillus subtilis (strain 168)) (UniProt P17865); assay: Inhibition of Bacillus subtilis FtsZ assessed as promotion of FtsZ polymerization at 10 ug/ml measured after […] by fluorescence spectrometer based light scattering assay; conditions: dose 10.0 µg/ml
T1 sequence (whole entry): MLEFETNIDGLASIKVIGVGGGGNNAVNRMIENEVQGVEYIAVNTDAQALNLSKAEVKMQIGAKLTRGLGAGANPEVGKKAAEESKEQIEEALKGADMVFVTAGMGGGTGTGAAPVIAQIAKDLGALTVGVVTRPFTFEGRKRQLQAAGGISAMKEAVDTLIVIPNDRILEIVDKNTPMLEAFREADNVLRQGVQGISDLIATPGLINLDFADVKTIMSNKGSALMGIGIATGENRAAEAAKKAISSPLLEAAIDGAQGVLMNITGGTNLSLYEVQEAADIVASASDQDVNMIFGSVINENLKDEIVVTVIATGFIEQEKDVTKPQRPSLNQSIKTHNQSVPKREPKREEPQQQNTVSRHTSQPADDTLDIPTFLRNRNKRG

Bacillus pumilus [3] = assay: Antibacterial activity against penicillin-susceptible Bacillus pumilus CMCC63202 assessed as inhibition of bacterial growth measured after 20 hrs by two-fold microdilution assay; type: functional
Enterococcus faecium [4] = assay: Bactericidal activity against Vancomycin-susceptible Enterococcus faecium ATCC 19434 assessed as inhibition of bacterial growth measured after 20 hrs by two-fold microdilution assay; type: functional
Enterococcus faecalis [5] = assay: Bactericidal activity against Vancomycin-resistant Enterococcus faecalis ATCC 51299 assessed as inhibition of bacterial growth measured after 20 hrs by two-fold microdilution assay; type: functional
Pseudomonas aeruginosa [6] = assay: Antibacterial activity against penicillin-susceptible Pseudomonas aeruginosa ATCC 27853 assessed as inhibition of bacterial growth measured after 20 hrs by two-fold microdilution assay; type: functional
Bacillus subtilis [7] = assay: Bactericidal activity against penicillin-susceptible Bacillus subtilis ATCC 9372 assessed as inhibition of bacterial growth measured after 20 hrs by two-fold microdilution assay; type: functional
Bacillus subtilis [8] = assay: Antibacterial activity against penicillin-susceptible Bacillus subtilis ATCC 9372 assessed as inhibition of bacterial growth measured after 20 hrs by two-fold microdilution assay; type: functional
Enterococcus faecalis [9] = assay: Bactericidal activity against Vancomycin-susceptible Enterococcus faecalis ATCC 29212 assessed as inhibition of bacterial growth measured after 20 hrs by two-fold microdilution assay; type: functional
Staphylococcus aureus [10] = assay: Bactericidal activity against erythromycin-susceptible Staphylococcus aureus ATCC 25923 assessed as inhibition of bacterial growth measured after 20 hrs by two-fold microdilution assay; type: functional
Bacillus pumilus [11] = assay: Bactericidal activity against penicillin-susceptible Bacillus pumilus CMCC63202 assessed as inhibition of bacterial growth measured after 20 hrs by two-fold microdilution assay; type: functional
Staphylococcus aureus [12] = assay: Bactericidal activity against penicillin-resistant Staphylococcus aureus ATCC 31007 assessed as inhibition of bacterial growth measured after 20 hrs by two-fold microdilution assay; type: functional
Streptococcus pyogenes [13] = assay: Antibacterial activity against erythromycin-resistant Streptococcus pyogenes assessed as inhibition of bacterial growth measured after 20 hrs by two-fold microdilution assay; type: functional
Enterococcus faecium [14] = assay: Antibacterial activity against Vancomycin-susceptible Enterococcus faecium ATCC 19434 assessed as inhibition of bacterial growth measured after 20 hrs by two-fold microdilution assay; type: functional
Escherichia coli = assay: Antibacterial activity against penicillin-susceptible Escherichia coli ATCC 25922 assessed as inhibition of bacterial growth measured after 20 hrs by two-fold microdilution assay; type: functional
Streptococcus pyogenes [15] = assay: Antibacterial activity against erythromycin-susceptible Streptococcus pyogenes assessed as inhibition of bacterial growth measured after 20 hrs by two-fold microdilution assay; type: functional
Enterococcus faecium [16] = assay: Bactericidal activity against Vancomycin-resistant Enterococcus faecium ATCC 51559 assessed as inhibition of bacterial growth measured after 20 hrs by two-fold microdilution assay; type: functional
Enterococcus faecium [17] = assay: Antibacterial activity against Vancomycin-resistant Enterococcus faecium ATCC 51559 assessed as inhibition of bacterial growth measured after 20 hrs by two-fold microdilution assay; type: functional
[18] = system: Staphylococcus epidermidis; assay: Antibacterial activity against penicillin-resistant Staphylococcus epidermidis assessed as inhibition of bacterial growth measured after 20 hrs by two-fold microdilution assay; type: functional
Staphylococcus aureus [19] = assay: Bactericidal activity against methicillin-resistant Staphylococcus aureus ATCC43300 assessed as inhibition of bacterial growth measured after 20 hrs by two-fold microdilution assay; type: functional
Enterococcus faecium [20] = assay: Ratio of MBC to MIC against Vancomycin-resistant Enterococcus faecium ATCC 51559; type: functional
Staphylococcus aureus [21] = assay: Ratio of MBC to MIC against methicilline-resistant Staphylococcus aureus ATCC43300; type: functional
Staphylococcus aureus [22] = assay: Antibacterial activity against erythromycin-susceptible Staphylococcus aureus ATCC 25923 assessed as inhibition of bacterial growth measured after 20 hrs by two-fold microdilution assay; type: functional
Enterococcus faecalis [23] = assay: Ratio of MBC to MIC against Vancomycin-susceptible Enterococcus faecalis ATCC 29212; type: functional
Enterococcus faecium [24] = assay: Ratio of MBC to MIC against Vancomycin-susceptible Enterococcus faecium ATCC 19434; type: functional
Staphylococcus aureus [25] = assay: Antibacterial activity against methicillin-resistant Staphylococcus aureus ATCC43300 assessed as inhibition of bacterial growth measured after 20 hrs by two-fold microdilution assay; type: functional
Staphylococcus aureus [26] = assay: Antibacterial activity against clinical isolate Staphylococcus aureus C1 assessed as inhibition of bacterial growth measured after 20 hrs by two-fold microdilution assay; type: functional
Staphylococcus aureus [27] = assay: Ratio of MBC to MIC against erythromycin-susceptible Staphylococcus aureus ATCC 25923; type: functional
Enterococcus faecalis [28] = assay: Antibacterial activity against Vancomycin-susceptible Enterococcus faecalis ATCC 29212 assessed as inhibition of bacterial growth measured after 20 hrs by two-fold microdilution assay; type: functional
Enterococcus faecalis [29] = assay: Antibacterial activity against Vancomycin-resistant Enterococcus faecalis ATCC 51299 assessed as inhibition of bacterial growth measured after 20 hrs by two-fold microdilution assay; type: functional
Staphylococcus aureus [30] = assay: Antibacterial activity against penicillin-resistant Staphylococcus aureus ATCC 31007 assessed as inhibition of bacterial growth measured after 20 hrs by two-fold microdilution assay; type: functional
Bacillus subtilis [31] = assay: Ratio of MBC to MIC against penicillin-susceptible Bacillus subtilis ATCC 9372; type: functional
Bacillus pumilus [32] = assay: Ratio of MBC to MIC against penicillin-susceptible Bacillus pumilus CMCC63202; type: functional
Staphylococcus aureus [33] = assay: Ratio of MBC to MIC against penicillin-resistant Staphylococcus aureus ATCC 31007; type: functional
[34] = target: T1, Cell division protein FtsZ (Bacillus subtilis (strain 168)); assay: Inhibition of Bacillus subtilis FtsZ assessed as promotion of FtsZ polymerization measured after […] by fluorescence spectrometer based light scattering assay; conditions: dose 2.5-10 µg/ml
Staphylococcus aureus [35] = assay: Antibacterial activity against Staphylococcus aureus ATCC 25923 infected in Kunming mouse assessed as decrease in viable bacterial in eye blood at 25 mg/kg, ip measured after 1 hr; type: functional, organism-based
Staphylococcus aureus [36] = assay: Antibacterial activity against Staphylococcus aureus ATCC 25923 infected in Kunming mouse assessed as decrease in viable bacterial in eye blood at 5 mg/kg, ip measured after 1 hr; type: functional, organism-based
Bacillus pumilus [37] = assay: Inhibition of Bacillus pumilus CMCC63202 FtsZ assessed as aggregation of FtsZ at 10 ug/ml pre-incubated for 30 mins followed by addition of GTP and measured after 30 mins measured after by Transmission electron microscopic method; conditions: dose 10.0 µg/ml
Staphylococcus aureus [38] = assay: Antibacterial activity against Staphylococcus aureus ATCC 25923 assessed as fold increase in MIC value measured after 1 passage by Multi passage resistance assay; type: functional
Bacillus pumilus [39] = assay: Inhibition of Bacillus pumilus CMCC63202 FtsZ assessed as change in morphology by measuring increase of cell length at 16 ug/ml measured after 20 hrs by optical microscopy; conditions: dose 16.0 µg/ml
Staphylococcus aureus [40] = assay: Antibacterial activity against Staphylococcus aureus ATCC 25923 assessed as decrease of bacterial growth measured up to 24 hrs by Time kill assay; type: functional, organism-based; conditions: dose 4-32 µg/ml, time hrs <=24
Staphylococcus aureus [41] = assay: Antibacterial activity against Staphylococcus aureus ATCC 25923 assessed as reduction of colony forming units at 4 to 64 ug/ml measured up to 24 hrs by Time kill assay; type: functional, organism-based; conditions: dose 4-64 µg/ml, time hrs <=24
Staphylococcus aureus [42] = assay: Antibacterial activity against Staphylococcus aureus ATCC 25923 assessed as fold change in MIC value measured after 14 passages by Multi passage resistance assay; type: functional, organism-based
[43] = Hemolytic activity against mouse RBC at 1 to 16 ug/ml measured after 1 hr by hemolysis assay relative to Triton X-100; type: ADME, cell-based, Erythrocyte; conditions: mouse red blood cells (erythrocytes), at 1 to 16 µg/mL, dose 1-16 µg/ml, read-out: Activity
Pseudomonas aeruginosa [44] = assay: Anti-biofilm activity against Pseudomonas aeruginosa ATCC 27853 assessed as inhibition of biofilm formation at 4 to 64 ug/ml measured after 20 hrs by crystal violet staining based biofilm formation inhibition assay; type: functional, organism-based; conditions: dose 4-64 µg/ml
Enterococcus faecalis [45] = assay: Ratio of MBC to MIC against Vancomycin-resistant Enterococcus faecalis ATCC 51299; type: functional

Row | SMILES | MIC (Bacillus pumilus [3]) [µg/mL] | MBC (Enterococcus faecium [4]) [µg/mL] | MBC (Enterococcus faecalis [5]) [µg/mL] | MIC (Pseudomonas aeruginosa [6]) [µg/mL] | MBC (Bacillus subtilis [7]) [µg/mL] | MIC (Bacillus subtilis [8]) [µg/mL] | MBC (Enterococcus faecalis [9]) [µg/mL] | MBC (Staphylococcus aureus [10]) [µg/mL] | MBC (Bacillus pumilus [11]) [µg/mL] | MBC (Staphylococcus aureus [12]) [µg/mL] | MIC (Streptococcus pyogenes [13]) [µg/mL] | MIC (Enterococcus faecium [14]) [µg/mL] | MIC (Escherichia coli) [µg/mL] | MIC (Streptococcus pyogenes [15]) [µg/mL] | MBC (Enterococcus faecium [16]) [µg/mL] | MIC (Enterococcus faecium [17]) [µg/mL] | MIC [18] [µg/mL] | MBC (Staphylococcus aureus [19]) [µg/mL] | MIC (Staphylococcus aureus [22]) [µg/mL] | MIC (Staphylococcus aureus [25]) [µg/mL] | further results
1 | CC(=O)NC[C@H]1CN(c2ccc(N3CCOCC3)c(F)c2)C(=O)O1 [LINEZOLID] | 2 (≈ 5.93 µM) | > 64 | 64 (≈ 190 µM) | > 64 | 64 (≈ 190 µM) | 0.5 (≈ 1.48 µM) | 64 (≈ 190 µM) | 128 (≈ 379 µM) | 16 (≈ 47.4 µM) | 16 (≈ 47.4 µM) | 1 (≈ 2.96 µM) | 4 (≈ 11.9 µM) | > 64 | 1 (≈ 2.96 µM) | 64 (≈ 190 µM) | 4 (≈ 11.9 µM) | 4 (≈ 11.9 µM) | 8 (≈ 23.7 µM) | – | – | Activity (Staphylococcus aureus [1]): Active; inhibition [2]: inactive
2 | Cc1ccc2c[n+](C)c3ccc(-c4ccc5ccn(Cc6ccc(OC(F)(F)F)cc6)c5c4)cc3c2c1.[Cl-] | 4 | 16 | 16 | > 64 | 4 | 4 | 16 | 4 | 32 | 4 | 8 | 4 | > 64 | 8 | 32 | 4 | 2 | 4 | 2 | 4 | Ratio (Enterococcus faecium [20]): 8; Ratio (Staphylococcus aureus [21]): 1; Ratio (Enterococcus faecalis [23]): 4; Ratio (Enterococcus faecium [24]): 4; MIC (Staphylococcus aureus [26]): 4 µg/mL; Ratio (Staphylococcus aureus [27]): 2; MIC (Enterococcus faecalis [28]): 4 µg/mL; MIC (Enterococcus faecalis [29]): 4 µg/mL; MIC (Staphylococcus aureus [30]): 4 µg/mL; Ratio (Bacillus subtilis [31]): 1; Ratio (Bacillus pumilus [32]): 8; Ratio (Staphylococcus aureus [33]): 1
3 | Cc1cccc2c[n+](C)c3ccc(-c4ccc5ccn(Cc6ccccc6)c5c4)cc3c12.[Cl-] | 4 | – | – | > 64 | 16 | 4 | – | 32 | > 64 | 64 | 8 | 8 | > 64 | 8 | – | 8 | 8 | 64 | 1 | 2 | inhibition [34]: Active; Activity (Staphylococcus aureus [35]): Active; Activity (Staphylococcus aureus [36]): Active; inhibition (Bacillus pumilus [37]): Active; MIC (Staphylococcus aureus [26]): 2 µg/mL; fold change (FC) (Staphylococcus aureus [38]): 2; Ratio (Staphylococcus aureus [27]): 32; MIC (Enterococcus faecalis [28]): 8 µg/mL; inhibition (Bacillus pumilus [39]): Active; Activity (Staphylococcus aureus [40]): Dose-Dependent Effect; MIC (Enterococcus faecalis [29]): 16 µg/mL; Activity (Staphylococcus aureus [41]): Active; MIC (Staphylococcus aureus [30]): 4 µg/mL; Activity (Staphylococcus aureus [42]): Active; Ratio (Bacillus subtilis [31]): 4; Ratio (Staphylococcus aureus [33]): 16; hemolysis at 1 h [43]: < 8%; Activity (Pseudomonas aeruginosa [44]): inactive
4 | Cc1ccc2c[n+](C)c3ccc(-c4ccc5ccn(Cc6ccc(C(F)(F)F)cc6)c5c4)cc3c2c1.[Cl-] | 2 | 16 | 32 | > 64 | > 8 | 8 | 16 | 4 | 16 | 16 | 8 | 2 | > 64 | 8 | 32 | 4 | 2 | 8 | 2 | 4 | Ratio (Enterococcus faecalis [23]): 4; Ratio (Enterococcus faecium [24]): 8; Ratio (Enterococcus faecalis [45]): 8; MIC (Staphylococcus aureus [26]): 2 µg/mL; Ratio (Staphylococcus aureus [27]): 2; MIC (Enterococcus faecalis [28]): 4 µg/mL; MIC (Enterococcus faecalis [29]): 4 µg/mL; MIC (Staphylococcus aureus [30]): 8 µg/mL; Ratio (Bacillus subtilis [31]): 1; Ratio (Bacillus pumilus [32]): 8; Ratio (Staphylococcus aureus [33]): 4
